These results are taken from paper PMC6044741 (ACS Omega, 2018).

SMILES strings stand for the structures. “Also recorded” adds a separate entry of the source.

The target of one series is T1, human RORγ hybrids of both isoforms 1 and 2 (Homo sapiens, UniProt P51449).
T1 sequence (P51449 259-518): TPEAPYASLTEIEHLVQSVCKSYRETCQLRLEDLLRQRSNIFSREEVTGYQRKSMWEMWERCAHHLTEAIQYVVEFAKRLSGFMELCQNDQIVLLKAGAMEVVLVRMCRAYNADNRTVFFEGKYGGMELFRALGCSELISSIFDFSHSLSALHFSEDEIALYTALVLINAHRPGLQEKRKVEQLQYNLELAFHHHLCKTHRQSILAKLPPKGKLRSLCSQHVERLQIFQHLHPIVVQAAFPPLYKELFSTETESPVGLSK
Briefly: Human RAR-related Orphan Receptor Gamma Reporter Assay System. The series is classed as cell-based.
Details: not given
(In general: In a reporter assay the amount or activity of a reporter protein is the signal.)
One may read the IC50 as the concentration needed to halve the response being measured. A high value points to lower potency. In turn, `CC1(c2cccc([N+](=O)[O-])c2)Nc2ccccc2C(=O)N1N=Cc1cc(Br)cc(Br)c1O` (stereo not drawn) [Compound 34] showed a half-inhibitory concentration (IC50) of 10 µM.

The same series, now with this note: result in words.
For `Cc1cc(C=C2C(=O)NC(=S)N(c3cccc(Br)c3)C2=O)c(C)n1-c1ccc(S(N)(=O)=O)cc1` [Compound 2], the “RORγt activity in experimental testing (active / inactive)” value (from here on “RORγt activity … (active / inactive)”) was “active”.

For the molecule `Cc1ccccc1-c1cc(C(=O)N2CCN(c3cccc(C(F)(F)F)c3)CC2)c2ccccc2n1` [Compound 12], the “RORγt activity … (active / inactive)” value is listed as “less active”.

For `Cc1ccc(-c2cc(C(=O)N3CCN(c4cccc(C(F)(F)F)c4)CC3)c3ccccc3n2)o1` [Compound 13], the “RORγt activity … (active / inactive)” value is “less active”.

For the molecule `Cc1ccccc1-c1cc(C(=O)N2CCN(c3ccc([N+](=O)[O-])cc3)CC2)c2ccccc2n1` [Compound 16], the “RORγt activity … (active / inactive)” value was “either insoluble or inactive”.

Consider `Cc1ccc(-c2cc(C(=O)N3CCN(c4ccc(F)cc4)CC3)c3ccccc3n2)cc1` [Compound 17], for which the “RORγt activity … (active / inactive)” value is “either insoluble or inactive; also recorded: inactivity”.

For `O=C(COC(=O)c1cccc(N2C(=O)C3C4c5ccccc5C(c5ccccc54)C3C2=O)c1)c1ccccc1` (stereo not drawn) [Compound 18], the “RORγt activity … (active / inactive)” value is reported as “activity”.

For `O=C(COC(=O)c1cccc(N2C(=O)C3C4c5ccccc5C(c5ccccc54)C3C2=O)c1)c1ccc(Cl)cc1` (stereo not drawn) [Compound 19], the “RORγt activity … (active / inactive)” value is given as “activity”.

Turning to `O=C(Oc1ccc(N2C(=O)C3C4c5ccccc5C(c5ccccc54)C3C2=O)cc1)c1cccc([N+](=O)[O-])c1` (stereo not drawn) [Compound 20], the “RORγt activity … (active / inactive)” value was “inactive”.

On to `O=C(O)c1ccc(NC(=O)c2cccc(N3C(=O)C4C5c6ccccc6C(c6ccccc65)C4C3=O)c2)cc1` (stereo not drawn) [Compound 21], for which the “RORγt activity … (active / inactive)” value was “inactive”.

As for `CC1(c2cccc([N+](=O)[O-])c2)Nc2ccccc2C(=O)N1N=Cc1cc(Br)cc(Br)c1O` (stereo not drawn) [Compound 34], the “RORγt activity … (active / inactive)” value is recorded as “not a particularly potent inverse agonist”.

System in another series: not given
Experiment: not given
The settings on record: listed 15.11.2017 in the ChEMBL; cited from earlier work.
What is called log P is the decadic logarithm of the partition coefficient of the neutral form, usually between octanol and water. With `CC(C)CN(Cc1ccc(F)cc1)S(=O)(=O)c1ccc(NC2CCN(S(C)(=O)=O)CC2)nc1` [Compound 3QQ, N-(4-fluorobenzyl)-N-(2-methylpropyl)-6-{[1-(methylsulfonyl)piperidin-4-yl]amino}pyridine-3-sulfonamide], the log partition coefficient (log P) was 2.3.
